From ChEMBL document CHEMBL2021919, “Computational analysis of structure-based interactions and ligand properties can predict efflux effects on antibiotics” (2012)
Converted amounts (≈) assume the structure as drawn.

Assays:
Escherichia coli [1] = assay: Ratio of MIC for wild type Escherichia coli JC7623 to MIC for acrAB-deficient Escherichia coli JZM120; type: functional
Salmonella typhimurium = assay: Ratio of MIC for wild type Salmonella typhimurium SH5014 to MIC for Salmonella typhimurium SH7616 harboring missense mutation in acrA/acrB gene by two-fold serial dilution method; type: functional, Salmonella enterica subsp. enterica serovar Typhimurium
Escherichia coli [2] = assay: Antimicrobial activity against wild type Escherichia coli expressing AcrAB-TolC efflux pump; type: functional
Escherichia coli [3] = assay: Ratio of MIC for wild type Escherichia coli TG1 to MIC for acrB-deficient Escherichia coli KAM3 by two-fold serial dilution method; type: functional
Escherichia coli [4] = assay: Ratio of MIC for wild type Escherichia coli ECM1194 to MIC for acrAB-deficient Escherichia coli ECM1694; type: functional
Escherichia coli [5] = assay: Ratio of MIC for wild type Escherichia coli HS414 to MIC for acrB-deficient Escherichia coli HS832 by agar dilution method; type: functional

Compound | Ratio (Escherichia coli [1]) | Ratio (Salmonella typhimurium) | MIC (Escherichia coli [2]) [µg/mL] | Ratio (Escherichia coli [3]) | Ratio (Escherichia coli [4]) | Ratio (Escherichia coli [5])
CO/N=C(\C(=O)N[C@@H]1C(=O)N2C(C(=O)[O-])=C(C[N+]3(C)CCCC3)CS[C@H]12)c1csc(N)n1 | 1 | 1 | 0.0075 (≈ 0.0156 µM) | – | – | –
CC1(C)S[C@@H]2[C@H](NC(=O)CCC[C@@H](N)C(=O)O)C(=O)N2[C@H]1C(=O)O [ADICILLIN] | – | 1 | 8 (≈ 22.3 µM) | – | – | –
CC1(C)S[C@@H]2[C@H](/N=C/N3CCCCCC3)C(=O)N2[C@H]1C(=O)O [AMDINOCILLIN] | 2 | – | 0.5 (≈ 1.54 µM) | – | – | –
CC1(C)S[C@@H]2[C@H](NC(=O)[C@H](N)c3ccc(O)cc3)C(=O)N2[C@H]1C(=O)O [AMOXICILLIN] | 1 | – | 4 (≈ 10.9 µM) | – | – | –
CC1(C)S[C@@H]2[C@H](NC(=O)[C@H](NC(=O)N3CCNC3=O)c3ccccc3)C(=O)N2[C@H]1C(=O)O [AZLOCILLIN] | 4 | – | 16 (≈ 34.7 µM) | – | – | –
C[C@H]1[C@H](NC(=O)/C(=N\OC(C)(C)C(=O)O)c2csc(N)n2)C(=O)N1S(=O)(=O)O [AZTREONAM] | – | – | 0.05 (≈ 0.115 µM) | 1 | – | –
CC1(C)S[C@@H]2[C@H](NC(=O)C(C(=O)O)c3ccccc3)C(=O)N2[C@H]1C(=O)O (stereo partly specified) [CARBENICILLIN] | 1 | 4 | 1.56 (≈ 4.12 µM) | 1 | – | –
Cn1nnnc1SCC1=C(C(=O)O)N2C(=O)[C@@H](NC(=O)[C@H](O)c3ccccc3)[C@H]2SC1 [CEFAMANDOLE] | 4 | – | 4 (≈ 8.65 µM) | 4 | – | –
Cc1nnc(SCC2=C(C(=O)O)N3C(=O)[C@@H](NC(=O)Cn4cnnn4)[C@H]3SC2)s1 [CEFAZOLIN] | 1 | 1 | 0.39 (≈ 0.858 µM) | – | – | –
CO[C@@]1(NC(=O)CSCC#N)C(=O)N2C(C(=O)O)=C(CSc3nnnn3C)CS[C@@H]21 [CEFMETAZOLE] | 1 | 1 | 0.05 (≈ 0.106 µM) | 2 | – | –
CCN1CCN(C(=O)N[C@@H](C(=O)N[C@@H]2C(=O)N3C(C(=O)O)=C(CSc4nnnn4C)CS[C@H]23)c2ccc(O)cc2)C(=O)C1=O [CEFOPERAZONE] | 2 | – | 0.03 (≈ 0.0465 µM) | – | – | –
CO/N=C(\C(=O)N[C@@H]1C(=O)N2C(C(=O)O)=C(COC(C)=O)CS[C@H]12)c1csc(N)n1 [CEFOTAXIME] | – | 4 | 0.12 (≈ 0.263 µM) | 2 | – | –
CO[C@@]1(NC(=O)Cc2cccs2)C(=O)N2C(C(=O)O)=C(COC(N)=O)CS[C@@H]21 [CEFOXITIN] | 4 | 4 | 4 (≈ 9.36 µM) | – | – | –
CO/N=C(\C(=O)N[C@@H]1C(=O)N2C(C(=O)[O-])=C(C[n+]3cccc4c3CCC4)CS[C@H]12)c1csc(N)n1 [CEFPIROME] | 1 | – | 0.015 (≈ 0.0291 µM) | – | – | –
NC(=O)c1cc[n+](CC2=C(C(=O)[O-])N3C(=O)[C@@H](NC(=O)[C@@H](c4ccccc4)S(=O)(=O)O)[C@H]3SC2)cc1 [CEFSULODIN] | 1 | 1 | 16 (≈ 30 µM) | – | – | –
CC(C)(O/N=C(\C(=O)N[C@@H]1C(=O)N2C(C(=O)[O-])=C(C[n+]3ccccc3)CS[C@H]12)c1csc(N)n1)C(=O)O [CEFTAZIDIME] | 1 | – | 0.12 (≈ 0.22 µM) | – | – | –
CO/N=C(\C(=O)N[C@@H]1C(=O)N2C(C(=O)O)=C(CSc3nc(=O)c(O)nn3C)CS[C@H]12)c1csc(N)n1 [CEFTRIAXONE] | 1 | 2 | 0.015 (≈ 0.027 µM) | – | – | –
CO/N=C(\C(=O)N[C@@H]1C(=O)N2C(C(=O)O)=C(COC(N)=O)CS[C@H]12)c1ccco1 [CEFUROXIME] | 16 | – | 1.56 (≈ 3.68 µM) | 8 | – | –
O=C(Cc1cccs1)N[C@@H]1C(=O)N2C(C(=O)[O-])=C(C[n+]3ccccc3)CS[C@H]12 [CEPHALORIDINE] | 2 | 2 | 2 (≈ 4.81 µM) | – | – | –
CC(=O)OCC1=C(C(=O)O)N2C(=O)[C@@H](NC(=O)CCC[C@@H](N)C(=O)O)[C@H]2SC1 [CEPHALOSPORIN C] | – | 1 | 16 (≈ 38.5 µM) | – | – | –
CC(=O)OCC1=C(C(=O)O)N2C(=O)[C@@H](NC(=O)Cc3cccs3)[C@H]2SC1 [CEPHALOTHIN] | – | – | 2 (≈ 5.04 µM) | – | – | –

Compound | Ratio (Escherichia coli [1]) | Ratio (Salmonella typhimurium) | MIC (Escherichia coli [2]) [µg/mL] | Ratio (Escherichia coli [3]) | Ratio (Escherichia coli [4]) | Ratio (Escherichia coli [5])
O=C(N[C@H](CO)[C@H](O)c1ccc([N+](=O)[O-])cc1)C(Cl)Cl [CHLORAMPHENICOL] | – | – | 4 (≈ 12.4 µM) | – | 4 | 8
Cc1onc(-c2ccccc2Cl)c1C(=O)N[C@@H]1C(=O)N2[C@@H]1SC(C)(C)[C@@H]2C(=O)O [CLOXACILLIN] | 128 | 256 | 256 (≈ 587 µM) | 128 | – | –
C[n+]1c2cc(N)ccc2cc2ccc(N)cc21.[Cl-] [EUFLAVINE] | – | – | 400 | – | – | 128
C[C@@H](O)[C@H]1C(=O)N2C(C(=O)O)=C([C@H]3CCCO3)S[C@H]12 [FAROPENEM] | – | – | 0.39 (≈ 1.37 µM) | 4 | – | –
CS(=O)(=O)c1ccc([C@@H](O)[C@@H](CF)NC(=O)C(Cl)Cl)cc1 [FLORFENICOL] | – | – | 6.25 (≈ 17.4 µM) | – | – | 8
CC[n+]1c(-c2ccccc2)c2cc(N)ccc2c2ccc(N)cc21.[Br-] [HOMIDIUM BROMIDE] | – | – | 800 | – | – | 256
CN(Cc1cnc2nc(N)nc(N)c2n1)c1ccc(C(=O)N[C@@H](CCC(=O)O)C(=O)O)cc1 [METHOTREXATE] | – | – | 640 (≈ 1410 µM) | – | – | 8
CC1(C)S[C@@H]2[C@H](NC(=O)[C@H](NC(=O)N3CCN(S(C)(=O)=O)C3=O)c3ccccc3)C(=O)N2[C@H]1C(=O)O [MEZLOCILLIN] | 32 | – | 1 (≈ 1.85 µM) | – | – | –
CO[C@@]1(NC(=O)C(C(=O)[O-])c2ccc(O)cc2)C(=O)N2C(C(=O)[O-])=C(CSc3nnnn3C)CO[C@@H]21.[Na+].[Na+] (stereo partly specified) [MOXALACTAM DISODIUM] | – | 1 | 0.12 | – | – | –
CCOc1ccc2ccccc2c1C(=O)N[C@@H]1C(=O)N2[C@@H]1SC(C)(C)[C@@H]2C(=O)O [NAFCILLIN] | – | – | 200 (≈ 483 µM) | 128 | – | –
CCn1cc(C(=O)O)c(=O)c2ccc(C)nc21 [NALIDIXIC ACID] | – | – | 3.12 (≈ 13.5 µM) | – | – | 2
CCn1cc(C(=O)O)c(=O)c2cc(F)c(N3CCNCC3)cc21 [NORFLOXACIN] | – | – | 0.004 (≈ 0.0125 µM) | – | – | 1
CO[C@@H]1[C@@H](OC(N)=O)[C@@H](O)[C@H](Oc2ccc3c(O)c(NC(=O)c4ccc(O)c(CC=C(C)C)c4)c(=O)oc3c2C)OC1(C)C [NOVOBIOCIN] | 32 | – | 32 (≈ 52.2 µM) | 64 | – | 64
Cc1onc(-c2ccccc2)c1C(=O)N[C@@H]1C(=O)N2[C@@H]1SC(C)(C)[C@@H]2C(=O)O [OXACILLIN] | 512 | – | 1020 (≈ 2550 µM) | 256 | – | –
CC1(C)S[C@@H]2[C@H](NC(=O)Cc3ccccc3)C(=O)N2[C@H]1C(=O)O [PENICILLIN G] | 2 | 32 | 8 (≈ 23.9 µM) | – | – | –
CCN1CCN(C(=O)N[C@@H](C(=O)N[C@@H]2C(=O)N3[C@@H]2SC(C)(C)[C@@H]3C(=O)O)c2ccccc2)C(=O)C1=O [PIPERACILLIN] | – | – | 4 (≈ 7.73 µM) | – | – | –
Nc1ccc2cc3ccc(N)cc3nc2c1 [PROFLAVINE] | – | – | 100 (≈ 478 µM) | – | – | 8
CC1(C)S[C@@H]2[C@H](NC(=O)C(c3ccccc3)S(=O)(=O)O)C(=O)N2[C@H]1C(=O)O (stereo partly specified) [SULBENICILLIN] | – | 4 | 8 (≈ 19.3 µM) | 1 | – | –
CC(=O)NS(=O)(=O)c1ccc(N)cc1 [SULFACETAMIDE] | – | – | 2000 (≈ 9340 µM) | – | – | 1
CN(C)[C@@H]1C(O)=C(C(N)=O)C(=O)[C@@]2(O)C(O)=C3C(=O)c4c(O)cccc4[C@@](C)(O)[C@H]3C[C@@H]12 [TETRACYCLINE] | – | – | 1.25 (≈ 2.81 µM) | – | – | 8
